Results as given in article PMC6219988 (Biochemistry, 2018).

System: PTP1B
Test: PTP1B-catalyzed hydrolysis of pNPP in the presence of inhibitors
Assay type: biochemical
Details: IC50 at 20 mM pNPP

CC(C)C1C=C2CCC3C(C)(C(=O)O)CCCC3(C)C2CC1 (single isomer, unassigned; diaa) [DiAA, dihydroabietic acid]
potency (IC50) relative to AA (ratio vs AA): 3 fold | potency (IC50) relative to DeAA (ratio vs DeAA): 7 fold
